Measurements as given in US20240351997A1, “NOVEL PARP7 INHIBITOR AND USE THEREOF” (SHANGHAI QILU PHARMACEUTICAL RESEARCH AND DEVELOPMENT …, priority 2021, published 2024).

How the values were obtained:
[1] = In vivo pharmacokinetic assay in rats (intravenous injection and oral administration); settings: SD rats; for AUC / clearance / half-life / Vd / Cmax: male, rat, plasma; for Vd: read-out: Vss
Text: (§1) III. In Vivo Pharmacokinetic Assay in Mice and Rats
(§2) The pharmacokinetic behavior of the compound of the present disclosure in plasma after a single intravenous injection and oral administration was studied using male C57BL/6 mice or SD male rats as experimental animals.
(§3) Healthy adult C57BL/6 mice or SD rats (3 mice or rats per group), male, supplied by Shanghai Jihui Laboratory Animal Care Co., Ltd. and Vital River Laboratory Animal Technology Co., Ltd.
(§4) Both the intravenous injection and oral administration groups consisted of 3 mice or rats. The intravenous injection was at a dose of 1 mg/kg and in a volume of 5 mL/kg; the oral administration was at a dose of 5 mg/kg and in a volume of 10 mL/kg. The vehicle for administration was 5% DMSO/5% Kolliphor HS 15/90% Saline.
(§5) 2.3 Experimental Equipment
(§6) The centrifuge was purchased from Eppendorf, and the pipette was purchased from Eppendorf.
(§7) After the animals were administered, 0.02 mL of blood was collected from the vein at 0.0833 (IV), 0.25, 0.5, 1, 2, 4, 8, and 24 hours, respectively, placed in an EDTA-K2 test tube, centrifuged at 4600 rpm for 5 minutes at 4° C. to separate the plasma, and stored at −80° C.
(§8) 1) 10 μL of plasma sample was precipitated by adding 200 μL of acetonitrile, vortexed to mix, and centrifuged for 15 minutes.
(§9) 2) The treated supernatant was diluted with water, and the concentration of the test compound was analyzed by LC/MS/MS.
(§10) • Liquid phase conditions: Shimadzu LC-30AD • Mass spectrometry conditions: AB Sciex API 5500 • Chromatographic column: Phenomenex Kinetex 2.6 μm C18 • Mobile phases: A: 5 mM ammonium acetate aqueous solution (containing 0.05% formic acid); B: acetonitrile (containing 0.1% formic acid); flow rate: 0.5 mL/min
(§11) 3. Experimental Results and Analysis
(§12) Pharmacokinetic parameters were calculated using WinNonlin 8.0, and the pharmacokinetic parameters for intravenous injection and oral administration in mice or rats are shown in Table 2 and Table 3 below: […]

PARP7 = PARP7 (Homo sapiens (Human), UniProt Q7Z3E1); assay: In vitro enzymology experiment of PARP7 (enzymatic inhibition); type: biochemical
Summary of the method: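 Histone-coated plate ADP-ribosylation format: compound preincubated 10 min at room temperature with preincubated (25 °C, 10 min) enzyme mixture; incorporated biotin detected by streptavidin-HRP and QuantaRed fluorescence (Ex550/Em620).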

[2] = In vivo pharmacokinetic assay in mice (intravenous injection and oral administration); settings: C57BL/6 mice; for AUC / clearance / half-life / Vd / Cmax: male, mouse, plasma; for Vd: read-out: Vss
Text: as §1, §2, §3, §4, §5, §6, §7, §8, §9, §10, §11, §12

PARP7, sequence (Q7Z3E1 whole entry): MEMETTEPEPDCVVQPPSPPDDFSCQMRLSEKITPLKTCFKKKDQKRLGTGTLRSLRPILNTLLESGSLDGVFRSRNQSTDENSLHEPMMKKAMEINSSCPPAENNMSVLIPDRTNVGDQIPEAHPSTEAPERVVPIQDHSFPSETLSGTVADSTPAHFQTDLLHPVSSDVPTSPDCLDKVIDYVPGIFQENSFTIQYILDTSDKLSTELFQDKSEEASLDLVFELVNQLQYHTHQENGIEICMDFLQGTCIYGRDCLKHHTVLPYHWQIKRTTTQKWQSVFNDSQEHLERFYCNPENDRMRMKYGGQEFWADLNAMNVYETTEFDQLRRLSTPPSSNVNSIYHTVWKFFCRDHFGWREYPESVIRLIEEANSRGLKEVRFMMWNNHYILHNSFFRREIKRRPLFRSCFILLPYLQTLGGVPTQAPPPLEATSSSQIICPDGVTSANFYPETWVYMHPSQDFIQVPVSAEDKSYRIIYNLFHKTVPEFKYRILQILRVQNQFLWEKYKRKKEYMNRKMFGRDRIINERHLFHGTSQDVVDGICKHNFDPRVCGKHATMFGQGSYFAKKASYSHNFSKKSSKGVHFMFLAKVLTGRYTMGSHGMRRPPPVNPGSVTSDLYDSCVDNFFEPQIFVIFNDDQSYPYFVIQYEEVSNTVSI

F ([1]; oral administration, 5 mg/kg) [%]	AUC ([1]; intravenous injection, 1 mg/kg) [ng·h/mL]	clearance ([1]; intravenous injection, 1 mg/kg) [mL/min/kg]	half-life ([1]; intravenous injection, 1 mg/kg) [h]	Vd ([1]; intravenous injection, 1 mg/kg) [L/kg]	AUC ([1]; oral administration, 5 mg/kg) [ng·h/mL]	Cmax ([1]; oral administration, 5 mg/kg) [ng/mL]	IC50 (PARP7) [pM]	F ([2]; oral administration, 5 mg/kg) [%]	AUC ([2]; intravenous injection, 1 mg/kg) [ng·h/mL]	clearance ([2]; intravenous injection, 1 mg/kg) [mL/min/kg]	half-life ([2]; intravenous injection, 1 mg/kg) [h]	Vd ([2]; intravenous injection, 1 mg/kg) [L/kg]	AUC ([2]; oral administration, 5 mg/kg) [ng·h/mL]	Cmax ([2]; oral administration, 5 mg/kg) [ng/mL]	SMILES
35	633	28.3	3.5	3.3	1060	434	530	52	2570	6.67	4.2	1.5	6760	3750	C[C@@H](Cc1c[nH]c(=O)c(C(F)(F)F)c1)OC(=O)N1CCN(c2ncc(C(F)(F)F)cn2)CC1 (single isomer, unassigned) [Example 35]
47	5740	3.33	4.7	0.9	13800	2350	1800	80	10400	1.5	6.1	0.6	42200	9310	O=C(OCCc1c[nH]c(=O)c(C(F)(F)F)c1)N1CCN(c2ncc(C(F)(F)F)cn2)CC1 [Example 3, 2-(6-Oxo-5-(trifluoromethyl)-1,6-dihydropyridin-3-yl)ethyl 4-(5-(trifluoromethyl)pyrimidin-2-yl)piperazine-1-carboxylate]
77	978	16.7	1.9	1.9	3830	809	780								C[C@@H](Cc1c[nH]c(=O)c(C(F)(F)F)c1)OC(=O)N1CCN(c2ncc(C(F)(F)F)cn2)[C@@H](C)C1 [Example 93, (S)-1-(6-Oxo-5-(trifluoromethyl)-1,6-dihydropyridin-3-yl)propan-2-yl (S)-3-methyl-4-(5-(trifluoromethyl)pyrimidin-2-yl)piperazine-1-carboxylate]
99	1060	15	2.3	2.1	5380	1310	380	72	8100	1.67	6.3	0.6	29600	8490	C[C@@H]1CN(c2ncc(C(F)(F)F)cn2)CCN1C(=O)OCCc1c[nH]c(=O)c(C(F)(F)F)c1 [Example 109, 2-(6-Oxo-5-(trifluoromethyl)-1,6-dihydropyridin-3-yl)ethyl (R)-2-methyl-4-(5-(trifluoromethyl)pyrimidin-2-yl)piperazine-1-carboxylate]
